Measured values as given in patent US10786509B2, “Treatment and prevention of atherothrombosis by inhibition of bruton's tyrosine kinase (BTK)” (priority 2016, dated 2020).
Several values for one entry are separate records, joined by “and”; a condition that tells them apart may be missing. Equal values may be shown once. Read-outs that look alike come from different tables or passages of the source.

How the values were obtained:
[1] = tested on: platelet aggregation in blood; test: Platelet aggregation in blood by multiple electrode aggregometry (MEA), static, inhibitor added in vitro; format: cell-based, human; conditions: for collagen-induced platelet aggregation / platelet aggregation stimulated by TRAP, ADP or AA: 2 μM; for collagen-induced platelet aggregation: compared with plaque-induced aggregation; for maximal suppression of plaque-induced platelet aggregation: ACP-196 at 1 μM, ONO/GS-4059 at 2 μM; for IC50: Homo sapiens, Platelet, 15 min pre-incubation, MEA
Procedure: The first 3 ml of blood drawn into an empty syringe were discarded. Experiments were performed between 30 min and 4 h after venipuncture. […] (Bampalis V G. et al.

[2] = tested on: platelet deposition onto plaque homogenate, plaque tissue sections or collagen; test: Platelet aggregation and thrombus formation in flowing whole blood (parallel plate flow chamber), inhibitor added in vitro; format: cell-based, human; conditions: for final platelet aggregate formation onto collagen fibers: up to 2 μM, only delayed at highest concentrations
[3] = tested on: platelet aggregation in blood; test: Ex vivo static platelet aggregation (MEA) in two healthy volunteers after oral Imbruvica
[4] = Blood counts, liver enzymes and tolerability in two healthy volunteers after oral Imbruvica
[5] = tested on: platelet deposition onto plaque homogenate or collagen; test: Ex vivo platelet thrombus formation under arterial flow in two healthy volunteers after oral Imbruvica; set-up: species or system human; conditions: shear rate 600/s
Procedure: For experiments in flowing blood, glass cover slips (Menzel, 24×60 mm, #1.5) coated with collagen (20 μg/ml), plaque homogenates or plaque tissue sections were assembled into parallel plate flow chambers using sticky slides (0.1 Luer sticky slides, Ibidi®, Martinsried, Germany) which had been blocked before with human serum albumin (HSA; 4% in PBS).
Fluorescence microscopy (excitation: 485/25 nm, emission: 528/38 nm) was performed for real time measurement of platelet adhesion and aggregate formation using a 10× air objective (NA 0.4) and a CoolSNAP HQ2 CCD camera (Photometrics, Tucson, USA).

[6] = plaque 833 μg/ml, static, read-out: IC50 for inhibition of plaque-induced platelet aggregation
[7] = plaque-induced platelet aggregation, static
[8] = donor B, after 1 week 140 mg each other day
[9] = donor A, 1 week after low dose Imbruvica (140 mg/d)
[10] = donor A, 3 h after Imbruvica loading dose (3×140 mg)
[11] = donor B, 1 week after low dose Imbruvica (140 mg each other day)
[12] = donor B, 3 h after Imbruvica loading dose (3×140 mg)

## CC#CC(=O)N1CC[C@@H](n2c(=O)n(-c3ccc(Oc4ccccc4)cc3)c3c(N)ncnc32)C1.Cl [ONO/GS-4059]
[1]; static
  collagen-induced platelet aggregation: equally well inhibited
  platelet aggregation stimulated by TRAP, ADP or AA: only marginally
  maximal suppression of plaque-induced platelet aggregation: 82%
[1]; [6]
  IC50: 1000 nM
[1]; [7]
  concentration at which maximal suppression was reached: 2 µM
[2]; shear rate 600/s
  final platelet aggregate formation onto collagen fibers: did not compromise

## CC#CC(=O)N1CCC[C@H]1c1nc(-c2ccc(C(=O)Nc3ccccn3)cc2)c2c(N)nccn12 [acalabrutinib]
[1]; static
  collagen-induced platelet aggregation: equally well inhibited
  platelet aggregation stimulated by TRAP, ADP or AA: only marginally
  maximal suppression of plaque-induced platelet aggregation: 80%
[1]; [6]
  IC50: 400 nM
[1]; [7]
  concentration at which maximal suppression was reached: 1 µM
[2]; 2 μM, shear rate 600/s
  inhibition of platelet aggregation / thrombus formation onto plaque homogenate: 96%
[2]; shear rate 600/s
  final platelet aggregate formation onto collagen fibers: did not compromise

## C=CC(=O)N1CCC[C@@H](n2nc(-c3ccc(Oc4ccccc4)cc3)c3c(N)ncnc32)C1 [ibrutinib, 1-[(3R)-3-[4-Amino-3-(4-phenoxyphenyl)-1H-pyrazolo[3,4-d]pyrimidin-1-yl]piperidin-1-yl]prop-2-en-1-one]
[3]; donor A, 140 mg/d during the week, blood taken 23 h or 3 h post dose
  inhibition of plaque-induced platelet aggregation at each day tested: > 90%
[3]; donor A, 3 h after loading dose 3×140 mg
  inhibition of collagen-induced platelet aggregation: 91%
[3]; donor A, 3 h after loading dose 3×140 mg, one value per pool, listed as Imbruvica
  inhibition of platelet aggregation induced by two plaque homogenate pools: 94% and 93%
[3]; donor A, after 1 week 140 mg/d
  inhibition of platelet aggregation after collagen stimulation: 91%
  reduction of platelet aggregation stimulated by TRAP: 70%
[3]; donor A, after 1 week 140 mg/d, one value per pool, listed as Imbruvica
  inhibition of platelet aggregation stimulated by two plaque homogenate pools: 94% and 91%
[3]; donor B, 3 h after loading dose 3×140 mg
  reduction of platelet aggregation after collagen stimulation: 58%
[3]; donor B, 3 h after loading dose 3×140 mg, one value per pool, listed as Imbruvica
  reduction of platelet aggregation after plaque stimulation (two pools): 68% and 77%
[3]; [8]
  inhibition of platelet aggregation after collagen stimulation: 82%
  reduction of platelet aggregation stimulated by TRAP: 45%
[3]; donor B, after 1 week 140 mg each other day, one value per pool, listed as Imbruvica
  inhibition of platelet aggregation stimulated by two plaque homogenate pools: 93% and 91%
[3]; donors A and B, 3 h after loading dose 3×140 mg
  platelet aggregation induced by TRAP, ADP or AA: barely inhibited
[3]; donors A and B, after 1 week low dose
  platelet aggregation induced by ADP or AA: barely inhibited
[4]; both donors
  B-lymphocytes (measured by FACS): rather increased then decreased
[4]; [9]
  HCT: 36.7
  Hb: 13.0 g/dL
  Lymphocytes: 2900 µL⁻¹
  Lymphocytes, %: 45.9%
  Monocytes: 500 µL⁻¹
  Monocytes, %: 8.1%
  Neutrophils: 2900 µL⁻¹
  Neutrophils, %: 46%
  Platelets: 217000 µL⁻¹
  Red blood cells: 4.22e+06 µL⁻¹
[4]; [10]
  HCT: 36.8
  Hb: 12.4 g/dL
  Lymphocytes: 2600 µL⁻¹
  Lymphocytes, %: 44%
  Monocytes: 300 µL⁻¹
  Monocytes, %: 5.8%
  Neutrophils: 2900 µL⁻¹
  Neutrophils, %: 50.2%
  Platelets: 247000 µL⁻¹
  Red blood cells: 4.07e+06 µL⁻¹
[4]; [11]
  HCT: 44
  Hb: 16.1 g/dL
  Lymphocytes: 2000 µL⁻¹
  Lymphocytes, %: 29.5%
  Monocytes: 900 µL⁻¹
  Monocytes, %: 12.5%
  Neutrophils: 3900 µL⁻¹
  Neutrophils, %: 58%
  Platelets: 160000 µL⁻¹
  Red blood cells: 4.91e+06 µL⁻¹
[4]; [12]
  HCT: 47.8
  Hb: 17.2 g/dL
  Lymphocytes: 1700 µL⁻¹
  Lymphocytes, %: 27.0%
  Monocytes: 700 µL⁻¹
  Monocytes, %: 10.7%
  Neutrophils: 4000 µL⁻¹
  Neutrophils, %: 62.3%
  Platelets: 188000 µL⁻¹
  Red blood cells: 5.39e+06 µL⁻¹
[4]; loading dose or weekly low dose intake, two donors
  liver enzymes: not altered
[1]; 1 μM, ADP 5 μM, static
  reduction of platelet aggregation stimulated by ADP: −13%
[1]; 1 μM, TRAP 5 μM, static
  reduction of platelet aggregation stimulated by TRAP: −31%
[1]; 1 μM, collagen, static
  platelet aggregation upon stimulation with collagen: almost completely inhibited
[1]; 1 μM, no stimulus
  spontaneous minimal platelet aggregation in the absence of stimuli: abolished
[1]; 1 μM, plaque 833 μg/ml, static
  platelet aggregation upon stimulation with plaque: almost completely inhibited
[1]; collagen, static, read-out: IC50 for inhibition of collagen-stimulated platelet aggregation
  IC50: 120 ± 40 nM
[1]; [6]
  IC50: 180 ± 50 nM
[1]; plaque- and collagen-stimulated platelet aggregation, static
  concentration at which maximal suppression was reached: 0.5 µM
[5]; after 1 week 140 mg/d (donor A) or 140 mg each other day (donor B)
  plaque-induced thrombus formation under arterial flow: suppressed
[5]; both donors, 3 h after loading dose 3×140 mg
  plaque-induced thrombus formation under arterial flow: suppressed
[2]; 0.2 μM and 0.5 μM, high shear rate 1500/s
  platelet aggregation onto collagen: did not reduce
[2]; 0.2 μM, high shear rate 1500/s
  change of platelet thrombus formation onto plaque homogenate: −69±16%
[2]; 0.2 μM, shear rate 600/s
  change of collagen-induced platelet aggregation: +1±6%
  change of platelet aggregation onto plaque homogenate: −43±27%
  change of platelet aggregation onto plaque tissue: −33±23%
[2]; 0.5 μM, high shear rate 1500/s
  change of platelet thrombus formation onto plaque homogenate: −93±5%
[2]; 0.5 μM, shear rate 600/s
  change of collagen-induced platelet aggregation: +3±9%
  change of platelet aggregation onto plaque homogenate: −84±8%
  change of platelet aggregation onto plaque tissue: −44±30%
[2]; 1 μM, shear rate 600/s
  change of final platelet aggregate formation onto collagen fibers: +8±2%
  change of platelet aggregation onto plaque homogenate: −98±1%
  change of platelet thrombus formation onto plaque tissue: −76±16%
  platelet adhesion onto plaque homogenate: preserving platelet adhesion
